In US8541607B2, “Disulfide, sulfide, sulfoxide, and sulfone derivatives of cyclic sugars and uses thereof” (Lacer, S.A., priority 2003, dated 2013):

Legend:
[1] = system: platelets (Human Platelet Rich Plasma); assay: In vitro inhibition of ADP-induced platelet aggregation; format: cell-based; conditions: submaximal ADP (1-4 μM), mean ± s.d.
Description: The method used in the assays is substantially the same as described in following reference: • * Sales, E., at al., Br. J. Pharmacol. 112 (1994); 1071-1076.
The compounds are tested at four different concentrations, using platelet rich plasma from not less than 6 different healthy human donors. The results obtained are compared to those from 5-isosorbide mononitrate, which is used as reference product.
The results are shown in table 2 and are expressed as IC50 (inhibitory concentration 50), which is the concentration of each of the tested compounds yielding an inhibition equal to 50% of the aggregation obtained with a submaximal concentration (1-4 μM) of ADP (a submaximal concentration of ADP is the minimal amount of ADP which produces the maximal aggregation).

[2] = system: human microvascular endothelial cells (HMEC-1); assay: Inhibition of LDL-Dil transcytosis through HMEC-1; format: cell-based; conditions: 2 h, mean ± s.e.m.; for Inhibition of LDL transcytosis, % of inhibition to control, Stimulated cells: HMEC-1 activated with 100 μM histamine; for Inhibition of LDL transcytosis, % of inhibition to control, Resting cells: non activated HMEC-1
Text: The method used in the assays to determine the effect of the compounds on LDL transcytosis in human microvascular endothelial cells is substantially the same as described in Colomé C. et al; Atherosclerosis 2000; 149: 295-302. This test allows a prediction on the anti-atherosclerotic potential of the compounds, since the accumulation of LDL in the vascular wall as a consequence of a vascular endothelial cell active transport is one of the first steps in the development of atherosclerosis.
The method used in the assays to isolate LDL particles from fresh human plasma and the labelling with Di1 is substantially the same as described in Pedreño J. et al., Atherosclerosis 2001; 155: 99-112, and Stephan Z. F. and Yuracheck E. C. J. Lipid Res. 1993; 34:325-330
Activated (100 μM histamine) and non activated HMEC-1 were cultivated in the upper well of inserted of coculture until to reach confluence (Falcon HTS FluorBloK). Then, LPL-Dil (up to 200 μg/ml) was added and cells were incubated for 2 h in the presence and absence of compounds. After these two hours, transcytosis of LDL-Dil particles through endothelial cells was assessed by determination of the presence of fluorescence in the lower well of insert of coculture. Results are expressed as percentage of inhibition respect to control in the absence of compounds).

[3] = system: LDL; assay: Inhibition of LDL oxidation induced by haemin and H2O2 (conjugated dienes, 234 nm); format: biochemical, human; conditions: compounds at 10 μM; 2.5 μM haemin and 5 μM H2O2; mean ± s.e.m.
Text: The method used in the assays to determine the effect of the compounds on LDL oxidation is substantially the same as described in the following references: • Sprenger T., et al., Chem. Phys. Lipids 1998; 91:39-52 • Lynch S. M., et al., Biochim. Biophys. Acta 2000; 1485:11-22 • Pedreño J., et al., Thromb. Res. 2000; 99: 51-60.
The method used in the assays to isolate LDL particles from fresh human plasma is substantially the same as described in Pedreño J., et al., Atherosclerosis 2001; 155: 99-112.
Oxidative modification of low-density lipoprotein (LDL) is currently believed to be a central event it the development of atherosclerotic cardiovascular disease. The exposition of LDL to globin-free haemin (the complex of ferric ion (Fe^3+) with protoporphyrin IX), derived from the haemoglobin in circulating erythrocytes, serves as a physiological source of pro-oxidant Fe^3+ capable to promoting LDL oxidation. The compounds were added in vitro to determine their inhibitory activity on LDL oxidation induced by haemin and H2O2. LDL at a final protein concentration of 0.2 mg/ml was incubated in the presence of 2.5 μM haemin and 5 μM H202. Oxidative modification of LDL particles was assessed by measurement of conjugated dienes. Experimental samples were incubated at 37° C. and the increase in absorbance at 234 nm was automatically recorded every 5 min for at least 5 h. The effect of compounds on the LDL oxidation induced by haemin was tested at 7 different concentrations using LDL preparations from 7 different healthy donors.

[4] = system: heparinized plasma (plasma lipoproteins); assay: Inhibition of plasma oxidation induced by Cu2+ (absorbance 234 nm); format: biochemical; conditions: compounds at 10 μM; 50 μM CuSO4; mean ± s.e.m.
Description: The method used in the assays to determine the effect of compounds on the capacity of oxidation of the plasma is substantially the same as described in Spranger T. et al., Chem Phys Lipids 1998; 91: 39-52.
Lipoprotein oxidation induced in vitro in plasma is expected to represent a relevant model of the lipoprotein oxidation in the arterial wall. Oxidation of plasma lipoproteins was assessed as the capacity of oxidation of heparinized plasma and was measured by spectrophotometry as in increase in absorbance at 234 nm. The compounds were added in vitro to determine their inhibitory activity over the capacity of oxidation of plasma induced by Cu^2+ (CuSO4). Heparinized plasma was diluted with phosphate-buffered saline solution (PBS) containing 0.16 M NaCl, and the oxidation was started by 50 μM CuSO4. Experimental samples were incubated at 37° C. and the increase in absorbance at 234 nm was automatically recorded every 15 min for at least 12 h. The effect of compounds over the capacity of oxidation of plasma induced by Cu^2+ was tested at 7 different concentrations using heparinizaded plasma from 7 different healthy donors.

[5] = system: HUVEC cells; assay: In vitro protection against cytotoxicity induced by oxygen radicals (peroxynitrite), XTT method; format: cell-based, human; conditions: HUVEC pre-treated with 50 μM compound for one hour, then 800 μM peroxynitrite overnight
Text: The method used is substantially the same as described by Caveda L., et al. (J. Clin. Invest. […]; 98: 886-893).
For the determination of the capacity to inhibit the cytotoxicity induced by oxygen radicals Human Umbilical Vein Endothelial Cells (HUVEC) were used. HUVEC were isolated and cultured in M199 and 20% FCS (Fetal Calf Serum).
Test XTT assay is based on […] by the metabolically active cells of the salt of tetrazolio XTT to form an orange product, the formazan dye formed is soluble and is directly quantified using an spectrophotometer.
HUVEC cells were cultivated until a sub-confluence status in a 96 well tissue culture plate and pre-treated with 50 μM of the compound for one hour. After that, cells were treated with 800 μM of peroxynitrite for an overnight.
After overnight incubation cells were incubated with the yellow XTT solution (final concentration 0.3 mg/ml) for 4 hours. After this incubation period, orange formazan solution was formed, which was spectrophotometrically quantified using an ELISA plate reader at 450 nm
The results are shown in table 15 and are expressed as percentage of death cells.

| IC50 [1] | Structure (SMILES) | Inhibition of LDL transcytosis, % of inhibition to control, Stimulated cells [2] | Inhibition of LDL transcytosis, % of inhibition to control, Resting cells [2] | % of increment of lag phase with respect to control (LDL oxidation) [3] | % of increment of lag phase with respect to control (plasma oxidation) [4] | % of death cells [5] |
| --- | --- | --- | --- | --- | --- | --- |
| 89 ± 10 µM | CC(=O)S[C@H]1CO[C@H]2[C@@H]1OC[C@H]2O[N+](=O)[O-] [(12), 2-acetylthio-isosorbide-5-mononitrate] | 80 ± 12% | 51 ± 19% | 117 ± 56% | 200 ± 10% | 50% |
| 110 ± 10 µM | O=[N+]([O-])O[C@@H]1CO[C@H]2[C@@H]1OC[C@@H]2S [(1), 2-thioisosorbide 5-mononitrate] | 122 ± 8% | 58 ± 15% | 290 ± 8% | 245 ± 26% | 80% |
